Experimental data from patent publication US20230085307A1, “PYRIDAZINONE COMPOUND AND HERBICIDE” (NISSAN CHEMICAL CORPORATION, priority 2019, published 2023).

Legend:
southern crabgrass [1] = test: Test Example 4: herbicidal effect by soil treatment (Table 19, symbol F); format: in vivo, southern crabgrass (Digitaria ciliaris); conditions: amount of applied herbicide 320 g/ha
Outline: (§1)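 Emulsion of test compound, water-diluted to predetermined amount, sprayed on soil after sowing (seed depth ~1.5 cm, sterilized diluvial soil). Greenhouse, 25–30° C. Effect graded at three weeks post-spray.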

lambsquarters [2] = test: Test Example 5: herbicidal effect by foliage application, plastic box (Table 20, symbol O); format: in vivo, lambsquarters (Chenopodium album); conditions: amount of applied herbicide 320 g/ha; foliage application after 14-day growth; evaluated three weeks after application
Outline: (§2)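 Post-emergence foliar test in sterilized diluvial soil. Compound applied as water-diluted emulsion at a predetermined rate to 14-day-old plants; evaluation at three weeks.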

velvetleaf [3] = test: Test Example 5: herbicidal effect by foliage application, plastic box (Table 20, symbol M); format: in vivo, velvetleaf (Abutilon theophrasti); conditions: amount of applied herbicide 320 g/ha; foliage application after 14-day growth; evaluated three weeks after application
Outline: as §2

rice flat sedge = test: Test Example 3: herbicidal effect by foliage application, Wagner pot (Table 18, symbol E); format: in vivo, rice flat sedge (Cyperus iria)
Outline: (§3)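 Plants were sown in alluvial soil held under 0.1–0.5 cm standing water and grown 14 days in a greenhouse at 25–30 °C. An emulsifiable formulation, water-diluted to the set dose, was then sprayed onto the foliage, and effects were scored three weeks later using previously defined criteria.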

Italian ryegrass [4] = test: Test Example 4: herbicidal effect by soil treatment (Table 19, symbol K); format: in vivo, Italian ryegrass (Lolium multiflorum); conditions: amount of applied herbicide 320 g/ha
Outline: as §1

velvetleaf [5] = test: Test Example 4: herbicidal effect by soil treatment (Table 19, symbol M); format: in vivo, velvetleaf (Abutilon theophrasti); conditions: amount of applied herbicide 320 g/ha
Outline: as §1

chickweed [6] = test: Test Example 5: herbicidal effect by foliage application, plastic box (Table 20, symbol P); format: in vivo, common chickweed (Stellaria media); conditions: amount of applied herbicide 320 g/ha; foliage application after 14-day growth; evaluated three weeks after application
Outline: as §2

redroot pigweed [7] = test: Test Example 5: herbicidal effect by foliage application, plastic box (Table 20, symbol N); format: in vivo, redroot pigweed (Amaranthus retroflexus); conditions: amount of applied herbicide 320 g/ha; foliage application after 14-day growth; evaluated three weeks after application
Outline: as §2

Chinese sprangletop = test: Test Example 3: herbicidal effect by foliage application, Wagner pot (Table 18, symbol D); format: in vivo, chinese sprangletop (Leptochloa chinensis)
Outline: as §3

southern crabgrass [8] = test: Test Example 5: herbicidal effect by foliage application, plastic box (Table 20, symbol F); format: in vivo, southern crabgrass (Digitaria ciliaris); conditions: amount of applied herbicide 320 g/ha; foliage application after 14-day growth; evaluated three weeks after application
Outline: as §2

green foxtail [9] = test: Test Example 5: herbicidal effect by foliage application, plastic box (Table 20, symbol G); format: in vivo, green foxtail (Setaria viridis); conditions: amount of applied herbicide 320 g/ha; foliage application after 14-day growth; evaluated three weeks after application
Outline: as §2

persian speedwell [10] = test: Test Example 5: herbicidal effect by foliage application, plastic box (Table 20, symbol R); format: in vivo, Persian speedwell (Veronica persica); conditions: amount of applied herbicide 320 g/ha; foliage application after 14-day growth; evaluated three weeks after application
Outline: as §2

Japanese bulrush = test: Test Example 1: herbicidal activity, application before weed generation under submerged conditions (Table 16, symbol B); format: in vivo, Japanese bulrush (Schoenoplectus juncoides); conditions: amount of applied herbicide 320 g/ha
Outline: (§4)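 Submerged Wagner pots (alluvial soil, 4 cm water) sown with weed seeds and planted with 2.5-leaf rice seedlings; emulsifiable concentrate diluted in water applied to water surface on sowing day. Held in greenhouse at 25-30 °C; injury scored 0-5 by herbicidal rate after three weeks.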

wild oat [11] = test: Test Example 5: herbicidal effect by foliage application, plastic box (Table 20, symbol I); format: in vivo, wild oat (Avena fatua); conditions: amount of applied herbicide 320 g/ha; foliage application after 14-day growth; evaluated three weeks after application
Outline: as §2

oval-leafed pondweed = test: Test Example 1: herbicidal activity, application before weed generation under submerged conditions (Table 16, symbol C); format: in vivo, oval-leafed pondweed (Monochoria vaginalis); conditions: amount of applied herbicide 320 g/ha
Outline: as §4

windgrass [12] = test: Test Example 4: herbicidal effect by soil treatment (Table 19, symbol L); format: in vivo, windgrass (Apera spica-venti); conditions: amount of applied herbicide 320 g/ha
Outline: as §1

chickweed [13] = test: Test Example 4: herbicidal effect by soil treatment (Table 19, symbol P); format: in vivo, common chickweed (Stellaria media); conditions: amount of applied herbicide 320 g/ha
Outline: as §1

green foxtail [14] = test: Test Example 4: herbicidal effect by soil treatment (Table 19, symbol G); format: in vivo, green foxtail (Setaria viridis); conditions: amount of applied herbicide 320 g/ha
Outline: as §1

late watergrass = test: Test Example 1: herbicidal activity, application before weed generation under submerged conditions (Table 16, symbol A); format: in vivo, late watergrass (Echinochloa oryzicola); conditions: amount of applied herbicide 320 g/ha
Outline: as §4

windgrass [15] = test: Test Example 5: herbicidal effect by foliage application, plastic box (Table 20, symbol L); format: in vivo, windgrass (Apera spica-venti); conditions: amount of applied herbicide 320 g/ha; foliage application after 14-day growth; evaluated three weeks after application
Outline: as §2

wild oat [16] = test: Test Example 4: herbicidal effect by soil treatment (Table 19, symbol I); format: in vivo, wild oat (Avena fatua); conditions: amount of applied herbicide 320 g/ha
Outline: as §1

blackgrass [17] = test: Test Example 4: herbicidal effect by soil treatment (Table 19, symbol J); format: in vivo, blackgrass (Alopecurus myosuroides); conditions: amount of applied herbicide 320 g/ha
Outline: as §1

Italian ryegrass [18] = test: Test Example 5: herbicidal effect by foliage application, plastic box (Table 20, symbol K); format: in vivo, Italian ryegrass (Lolium multiflorum); conditions: amount of applied herbicide 320 g/ha; foliage application after 14-day growth; evaluated three weeks after application
Outline: as §2

redroot pigweed [19] = test: Test Example 4: herbicidal effect by soil treatment (Table 19, symbol N); format: in vivo, redroot pigweed (Amaranthus retroflexus); conditions: amount of applied herbicide 320 g/ha
Outline: as §1

barnyard grass [20] = test: Test Example 3: herbicidal effect by foliage application, Wagner pot (Table 18, symbol H); format: in vivo, barnyard grass (Echinochloa crus-galli)
Outline: as §3

persian speedwell [21] = test: Test Example 4: herbicidal effect by soil treatment (Table 19, symbol R); format: in vivo, Persian speedwell (Veronica persica); conditions: amount of applied herbicide 320 g/ha
Outline: as §1

blackgrass [22] = test: Test Example 5: herbicidal effect by foliage application, plastic box (Table 20, symbol J); format: in vivo, blackgrass (Alopecurus myosuroides); conditions: amount of applied herbicide 320 g/ha; foliage application after 14-day growth; evaluated three weeks after application
Outline: as §2

barnyard grass [23] = test: Test Example 4: herbicidal effect by soil treatment (Table 19, symbol H); format: in vivo, barnyard grass (Echinochloa crus-galli); conditions: amount of applied herbicide 320 g/ha
Outline: as §1

barnyard grass [24] = test: Test Example 5: herbicidal effect by foliage application, plastic box (Table 20, symbol H); format: in vivo, barnyard grass (Echinochloa crus-galli); conditions: amount of applied herbicide 320 g/ha; foliage application after 14-day growth; evaluated three weeks after application
Outline: as §2

lambsquarters [25] = test: Test Example 4: herbicidal effect by soil treatment (Table 19, symbol O); format: in vivo, lambsquarters (Chenopodium album); conditions: amount of applied herbicide 320 g/ha
Outline: as §1

SMILES	F: southern crabgrass, herbicidal effect grade (southern crabgrass [1])	Herbicidal effect by foliage application, O: lambsquarters (lambsquarters [2])	Herbicidal effect by foliage application, M: velvetleaf (velvetleaf [3])	K: Italian ryegrass, herbicidal effect grade (Italian ryegrass [4])	M: velvetleaf, herbicidal effect grade (velvetleaf [5])	Herbicidal effect by foliage application, P: chickweed (chickweed [6])	Herbicidal effect by foliage application, N: redroot pigweed (redroot pigweed [7])	Herbicidal effect by foliage application, F: southern crabgrass (southern crabgrass [8])	Herbicidal effect by foliage application, G: green foxtail (green foxtail [9])	Herbicidal effect by foliage application, R: persian speedwell (persian speedwell [10])	Herbicidal effect, B: Japanese bulrush (Japanese bulrush)	Herbicidal effect by foliage application, I: wild oat (wild oat [11])	Herbicidal effect, C: oval-leafed pondweed (oval-leafed pondweed)	L: windgrass, herbicidal effect grade (windgrass [12])	P: chickweed, herbicidal effect grade (chickweed [13])	G: green foxtail, herbicidal effect grade (green foxtail [14])	Herbicidal effect, A: late watergrass (late watergrass)	Herbicidal effect by foliage application, L: windgrass (windgrass [15])	I: wild oat, herbicidal effect grade (wild oat [16])	J: blackgrass, herbicidal effect grade (blackgrass [17])	other results
Cc1nn(C)c(=O)c(-c2c(-c3ccc(OC(C)C)cc3)sc3cc(F)c(F)cc23)c1O [5-019]	0 (Herbicidal rate of 5% or less (almost no effect))	3 (Herbicidal rate of 40% or more and less than 70%)	4 (Herbicidal rate of 70% or more and less than 90%)	0 (Herbicidal rate of 5% or less (almost no effect))	3 (Herbicidal rate of 40% or more and less than 70%)	5 (Herbicidal rate of 90% or more (almost completely withered))	5 (Herbicidal rate of 90% or more (almost completely withered))	4 (Herbicidal rate of 70% or more and less than 90%)	4 (Herbicidal rate of 70% or more and less than 90%)	5 (Herbicidal rate of 90% or more (almost completely withered))	0 (Herbicidal rate of 5% or less (almost no effect))	0 (Herbicidal rate of 5% or less (almost no effect))	0 (Herbicidal rate of 5% or less (almost no effect))	0 (Herbicidal rate of 5% or less (almost no effect))	1 (Herbicidal rate of 5% or more and less than 20%)	3 (Herbicidal rate of 40% or more and less than 70%)	3 (Herbicidal rate of 40% or more and less than 70%)	0 (Herbicidal rate of 5% or less (almost no effect))	0 (Herbicidal rate of 5% or less (almost no effect))	0 (Herbicidal rate of 5% or less (almost no effect))	herbicidal effect on rice flat sedge (E) (rice flat sedge; 320 g/ha): 1 (Herbicidal rate of 5% or more and less than 20%); herbicidal effect on Chinese sprangletop (D) (Chinese sprangletop; 320 g/ha): 0 (Herbicidal rate of 5% or less (almost no effect)); Herbicidal effect by foliage application, K: Italian ryegrass (Italian ryegrass [18]): 3 (Herbicidal rate of 40% or more and less than 70%); N: redroot pigweed, herbicidal effect grade (redroot pigweed [19]): 4 (Herbicidal rate of 70% or more and less than 90%); herbicidal effect on barnyard grass (H) (barnyard grass [20]; 320 g/ha): 4 (Herbicidal rate of 70% or more and less than 90%); R: persian speedwell, herbicidal effect grade (persian speedwell [21]): 4 (Herbicidal rate of 70% or more and less than 90%); Herbicidal effect by foliage application, J: blackgrass (blackgrass [22]): 0 (Herbicidal rate of 5% or less (almost no effect)); H: barnyard grass, herbicidal effect grade (barnyard grass [23]): 0 (Herbicidal rate of 5% or less (almost no effect)); Herbicidal effect by foliage application, H: barnyard grass (barnyard grass [24]): 4 (Herbicidal rate of 70% or more and less than 90%); O: lambsquarters, herbicidal effect grade (lambsquarters [25]): 2 (Herbicidal rate of 20% or more and less than 40%)
CCCC(=O)Oc1c(C)nn(C)c(=O)c1-c1c(-c2ccc(C(=O)OC)cc2)sc2cc(F)c(F)cc12 [5-028]	0 (Herbicidal rate of 5% or less (almost no effect))	3 (Herbicidal rate of 40% or more and less than 70%)	3 (Herbicidal rate of 40% or more and less than 70%)	0 (Herbicidal rate of 5% or less (almost no effect))	0 (Herbicidal rate of 5% or less (almost no effect))	5 (Herbicidal rate of 90% or more (almost completely withered))	3 (Herbicidal rate of 40% or more and less than 70%)	0 (Herbicidal rate of 5% or less (almost no effect))	0 (Herbicidal rate of 5% or less (almost no effect))	4 (Herbicidal rate of 70% or more and less than 90%)	2 (Herbicidal rate of 20% or more and less than 40%)	0 (Herbicidal rate of 5% or less (almost no effect))	2 (Herbicidal rate of 20% or more and less than 40%)	0 (Herbicidal rate of 5% or less (almost no effect))	1 (Herbicidal rate of 5% or more and less than 20%)	0 (Herbicidal rate of 5% or less (almost no effect))	0 (Herbicidal rate of 5% or less (almost no effect))	0 (Herbicidal rate of 5% or less (almost no effect))	0 (Herbicidal rate of 5% or less (almost no effect))	0 (Herbicidal rate of 5% or less (almost no effect))	herbicidal effect on rice flat sedge (E) (rice flat sedge; 344 g/ha): 0 (Herbicidal rate of 5% or less (almost no effect)); herbicidal effect on Chinese sprangletop (D) (Chinese sprangletop; 344 g/ha): 0 (Herbicidal rate of 5% or less (almost no effect)); Herbicidal effect by foliage application, K: Italian ryegrass (Italian ryegrass [18]): 0 (Herbicidal rate of 5% or less (almost no effect)); N: redroot pigweed, herbicidal effect grade (redroot pigweed [19]): 3 (Herbicidal rate of 40% or more and less than 70%); herbicidal effect on barnyard grass (H) (barnyard grass [20]; 344 g/ha): 5 (Herbicidal rate of 90% or more (almost completely withered)); R: persian speedwell, herbicidal effect grade (persian speedwell [21]): 1 (Herbicidal rate of 5% or more and less than 20%); Herbicidal effect by foliage application, J: blackgrass (blackgrass [22]): 0 (Herbicidal rate of 5% or less (almost no effect)); H: barnyard grass, herbicidal effect grade (barnyard grass [23]): 0 (Herbicidal rate of 5% or less (almost no effect)); Herbicidal effect by foliage application, H: barnyard grass (barnyard grass [24]): 0 (Herbicidal rate of 5% or less (almost no effect)); O: lambsquarters, herbicidal effect grade (lambsquarters [25]): 2 (Herbicidal rate of 20% or more and less than 40%)
